This passage reports EC50 results from ChEMBL document CHEMBL5046256, “The discovery of potent small molecule cyclic urea activators of STING” (Eur J Med Chem, 2022).

This experiment can be described thus: Agonist activity against human STING R232H variant transfected in HEK-293T cells co-expressing ISRE.ISG54 by luciferase reporter gene assay. The experiment is classed as cell-based.

For the compound `Cc1ncc(Cl)c(CN2C(=O)N(C)C(C)c3ccc(C(=O)NCc4c(F)cc(F)cc4F)cc32)c1F` (stereo unspecified), where the note is “Homo sapiens, HEK-293T”, a half-maximal response (EC50) required 39 nM.

Regarding `CN1Cc2ccc(C(=O)NCc3c(F)cc(F)cc3F)cc2N(Cc2ccc(F)cc2)C1=O`, it took 196 nM to reach a half-maximal effect (Homo sapiens, HEK-293T) (EC50).

Turning to `Cc1cccc(F)c1CN1C(=O)N(C)Cc2ccc(C(=O)NCc3c(F)cc(F)cc3F)cc21`, for the setting “Homo sapiens, HEK-293T”, the EC50 was determined as 317 nM.

For the compound `CN1Cc2ccc(C(=O)NCc3c(F)cc(F)cc3F)cc2N(Cc2c(F)cccc2Cl)C1=O`, the EC50 (Homo sapiens, HEK-293T) turned out to be 133 nM.

`CC1c2ccc(C(=O)NCc3c(F)cc(F)cc3F)cc2N(Cc2c(F)cccc2Cl)C(=O)N1C` (stereo unspecified) registered a concentration for a half-maximal effect (EC50) (Homo sapiens, HEK-293T) of 29 nM.

For the compound `Cc1ncc(Cl)c(CN2C(=O)N(C)[C@@H](C)c3ccc(C(=O)NCc4c(F)cc(F)cc4F)cc32)c1F`, under “Homo sapiens, HEK-293T”, the EC50 turned out to be 37 nM.

With `Cc1ncc(CN2C(=O)N(C)Cc3ccc(C(=O)NCc4c(F)cc(F)cc4F)cc32)s1`, for the setting “Homo sapiens, HEK-293T”, the EC50 came out at 1710 nM. Against the preceding compound, the EC50 is about 46-fold higher.

In turn, `Cc1cccc(F)c1CN1C(=O)N(C)C(C)c2ccc(C(=O)NCc3c(F)cc(F)cc3F)cc21` (stereo unspecified) returned an EC50 (Homo sapiens, HEK-293T) of 41 nM.

`Cc1ccc(Cl)c(CN2C(=O)N(C)C(C)c3ccc(C(=O)NCc4c(F)cc(F)cc4F)cc32)c1F` (stereo unspecified) yielded an EC50 (Homo sapiens, HEK-293T) of 60 nM.

Under “Homo sapiens, HEK-293T”, `Cc1cccc(CN2C(=O)N(C)C(C)c3ccc(C(=O)NCc4c(F)cc(F)cc4F)cc32)c1F` (stereo unspecified) came in with an EC50 of 91 nM.

Compound `CN1Cc2ccc(C(=O)NCc3c(F)cc(F)cc3F)cc2N(Cc2ccncc2)C1=O` yielded an EC50 (Homo sapiens, HEK-293T) of 3340 nM. Compared with the last compound, the EC50 is about 37-fold higher.

Compound `C[C@H]1c2ccc(C(=O)NCc3c(F)cc(F)cc3F)cc2N(Cc2ncccc2F)C(=O)N1C` registered an EC50 (Homo sapiens, HEK-293T) of 1040 nM. This EC50 lies about 3.2-fold lower than the previous one.

As for `Cc1cccc(CN2C(=O)N(C)Cc3ccc(C(=O)NCc4c(F)cc(F)cc4F)cc32)c1F`, the EC50 (Homo sapiens, HEK-293T) is 369 nM.

For `CN1Cc2ccc(C(=O)NCc3ccc(F)cc3F)cc2N(Cc2cc(F)cc(F)c2)C1=O`, a half-maximal response (Homo sapiens, HEK-293T) (EC50) required 450 nM.

`CC1c2ccc(C(=O)NCc3c(F)cc(F)cc3F)cc2N(Cc2cc(F)cc(F)c2)C(=O)N1C` (racemic) showed an EC50 (hek-293t) of 470 nM.

In turn, `Cc1cc(CN2C(=O)N(C)C(C)c3ccc(C(=O)NCc4c(F)cc(F)cc4F)cc32)ccn1` (racemic) gave a concentration for a half-maximal effect (EC50) (hek-293t) of 247 nM.

Under “Homo sapiens, HEK-293T”, `C[C@H]1c2ccc(C(=O)NCc3c(F)cc(F)cc3F)cc2N(Cc2c(F)cncc2F)C(=O)N1C` gave an EC50 of 169 nM.

Compound `O=C(NCc1c(F)cc(F)cc1F)c1ccc2c(c1)N(Cc1cc(F)cc(F)c1)C(=O)NC2` had a concentration giving a half-maximal response (EC50) (Homo sapiens, HEK-293T) of 2340 nM.

Turning to `CN1Cc2ccc(C(=O)NCc3c(F)cc(F)cc3F)cc2N(Cc2ccccc2F)C1=O`, where the note is “Homo sapiens, HEK-293T”, the response was half-maximal at 191 nM (EC50).

Take `COc1cccc(F)c1CN1C(=O)N(C)Cc2ccc(C(=O)NCc3c(F)cc(F)cc3F)cc21`: the EC50 (Homo sapiens, HEK-293T) was 248 nM.

`CC1c2ccc(C(=O)NCc3c(F)cc(F)cc3F)cc2N(Cc2ccccc2F)C(=O)N1C` (stereo in doubt; 98) had an EC50 (hek-293t) of 122 nM.

`CC1c2ccc(C(=O)NCc3c(F)cc(F)cc3F)cc2N(Cc2c(F)cccc2F)C(=O)N1C` (racemic) came in with an EC50 (hek-293t) of 21 nM.

For the setting “Homo sapiens, HEK-293T”, `Cc1nccc(CN2C(=O)N(C)[C@@H](C)c3ccc(C(=O)NCc4c(F)cc(F)cc4F)cc32)c1F` came in with a half-maximal effective concentration (EC50) of 47 nM.

As for `CN1Cc2ccc(C(=O)NCc3c(F)cc(F)cc3F)cc2N(Cc2cc(F)cc(F)c2)C1=O`, the EC50 (Homo sapiens, HEK-293T) stood at 274 nM.

In turn, `Cc1nccc(CN2C(=O)N(C)C(C)c3ccc(C(=O)NCc4c(F)cc(F)cc4F)cc32)c1F` (stereo unspecified) returned an EC50 (Homo sapiens, HEK-293T) of 134 nM.

`CC1c2ccc(C(=O)NCc3c(F)cc(F)cc3F)cc2N(Cc2ccc(F)cc2)C(=O)N1C` (stereo unspecified): the response (Homo sapiens, HEK-293T) was half-maximal at 200 nM (EC50). The EC50 values of the last two compounds are within 1.5-fold of each other.

For the compound `Cc1ccc(Cl)c(CN2C(=O)N(C)[C@@H](C)c3ccc(C(=O)NCc4c(F)cc(F)cc4F)cc32)c1F`, the EC50 (Homo sapiens, HEK-293T) came to 38 nM.

`C[C@H]1c2ccc(C(=O)NCc3c(F)cc(F)cc3F)cc2N(Cc2c(Cl)cn(C)c(=O)c2F)C(=O)N1C` showed an EC50 (Homo sapiens, HEK-293T) of 1760 nM.

In turn, `CN1Cc2ccc(C(=O)NCc3c(F)cc(F)cc3F)cc2N(Cc2ccccc2)C1=O` showed an EC50 (Homo sapiens, HEK-293T) of 980 nM.

In turn, `C[C@@H]1c2ccc(C(=O)NCc3c(F)cc(F)cc3F)cc2N(Cc2c(F)cccc2Cl)C(=O)N1C` returned an EC50 (Homo sapiens, HEK-293T) of 2600 nM.

Where the note is “Homo sapiens, HEK-293T”, `CC1c2ccc(C(=O)NCc3c(F)cc(F)cc3F)cc2N(Cc2c(F)cccc2C(F)(F)F)C(=O)N1C` (stereo unspecified) came in with a concentration for a half-maximal effect (EC50) of 181 nM.
